This is an account of results in patent US20120258937A1, “Targeting Estrogen Receptors in the Treatment of Lymphangioleiomyomatosis” (Fox Chase Cancer Center, priority 2011, published 2012).

For experiment [1], the system named is ELT3 cells. The experiment in a line: ELT3 xenograft tumor growth, lung metastasis and survival in SCID mice. The conditions noted are these: for effect on estradiol-promoted lung metastases: ELT3 xenograft model of LAM; for mean tumor area: post-inoculation week eight. In kind it is in vivo. Here is the method:
Animal studies. All animal work was performed in accordance with protocols approved by the Institutional Animal Care and Use Committee at the Brigham and Women's Hospital. Female ovariectomized and male CB17-SCID mice, six to eight weeks of age, were purchased from Taconic (Hudson, N.Y.). One week prior to ELT3 cell injection, 17-beta estradiol or placebo pellets (2.5 mg, 90-day release, Innovative Research America, Sarasota, Fla.) were implanted. For xenograft tumor establishment, 2×10^6 ELT3 cells were bilaterally injected into the rear flanks of the mice. Lung metastases were scored from five-micron H & E stained sections of each lobe by observers blinded to the experimental conditions. […]
Statistical analyses. Statistical analyses were performed using Student's t-test when comparing two groups. Results are presented as means+SD (Standard Deviation) of experiments performed in triplicate. Differences were considered significant at p<0.05.

Experiment [2] concerns MMP2. The experiment in a line: MMP2 activity in ELT3 conditioned media by gelatin zymography. In kind it is cell-based, rat. Particulars: ELT3 cells. The method, then: (§1) Cell culture and reagents. ELT-3 cells (Eker rat uterine leiomyoma-derived smooth muscle cells) were cultured in IIA complete medium supplemented with 15% fetal bovine serum (FBS). Prior to the in vitro experiments, cells were maintained in media supplemented with 10% charcoal-stripped FBS for three days, and then serum-starved for 24 hours in serum-free and phenol red-free medium. 17 beta-estradiol (E2, 10 nM, Sigma, St. Louis, Mo.), PD98059 (50 μM, Cell Signaling Technology, Danvers, Mass.), or ICI 182780 (1 μM, Biomol) were added to the cells as indicated.
(§2) Immunohistochemistry. Sections were deparaffinized, incubated overnight with primary antibodies at 4° C. in a humidified chamber and then rinsed and incubated with biotinylated secondary antibodies for 30 minutes at room temperature. Slides were developed using the Broad Spectrum AEC Histostain®-Plus or Histostain®-Plus kit (Invitrogen), and they were counterstained with Gill's Hematoxylin. TUNEL assay reagent was from Roche. Gelatin zymography. Conditioned media from cultured cells were collected, filtered through […] Nalgene filter, and subjected for gel electrophoresis on 10% SDS-PAGE containing 0.1% gelatin (Invitrogen). MMP2 activity was detected according to the manufacture's protocol. Real-time RT-PCR. Total RNA from cultured cells and xenograft tumors was isolated using RNeasy® Mini Kit (Qiagen, Valencia, Calif.). Gene expression was quantified using One-Step qRT-PCR Kits (Invitrogen) in the Applied Biosystems Real-Time PCR System and normalized to beta-actin control amplification.

The test system of experiment [3] is ELT3 xenograft tumors. The experiment in a line: Analysis of ELT3 xenograft tumors (H&E, immunohistochemistry, TUNEL, immunoblot, real-time RT-PCR). Format: in vivo, mice. Particulars: for MMP2 protein level vs placebo-treated: immunoblotting. The method, then: Animal studies. All animal work was performed in accordance with protocols approved by the Institutional Animal Care and Use Committee at the Brigham and Women's Hospital. Female ovariectomized and male CB17-SCID mice, six to eight weeks of age, were purchased from Taconic (Hudson, N.Y.). One week prior to ELT3 cell injection, 17-beta estradiol or placebo pellets (2.5 mg, 90-day release, Innovative Research America, Sarasota, Fla.) were implanted. For xenograft tumor establishment, 2×10^6 ELT3 cells were bilaterally injected into the rear flanks of the mice. Lung metastases were scored from five-micron H & E stained sections of each lobe by observers blinded to the experimental conditions. Fulvestrant (1 mg/day, intramuscular injection) or Doxycycline (0.7 mg/day, 60-day release, Innovative Research America) treatments were initiated one day post-cell inoculation.
(§3) Immunoblotting and antibodies. Cells were rinsed once in ice-cold PBS and lysed in m-PER buffer (50 mM HEPES, pH 7.5, 50 mM NaCl, 5 mM EDTA, 50 mM NaF, 10 mM Na4P2O7, and 1% Triton, Pierce). Lysates were resolved by SDS-PAGE electrophoresis and transferred onto Immobilon P membranes (Millipore, Bedford, Mass.). The following antibodies were used for Western blot analysis: anti-MMP2 (Chemicon), anti-phospho-p42/44 MAPK (T202/Y204), anti-p42/44MAPK, anti-Collagen Type IV (Abnova), anti-Ki67 (BioGenex, San Ramon, Calif.), anti-beta-actin (Sigma), and anti-ERα (Santa Cruz, Calif.). Western blots were developed using horseradish peroxidase-conjugated secondary antibodies and ECL chemiluminescence (Amersham Biosciences, Piscataway, N.J.).
as §2
In general terms: In western blotting, separated proteins are transferred to a membrane and probed.

The test system of experiment [4] is MMP2. In words: MMP2 accumulation in cultured ELT3 cells by immunoblotting. Format: cell-based, rat. Here is the method: as §1, §3
Where [5] appears, read: estradiol plus drug, immunoblot.
Setting [6] is: ELT3 xenograft, given on this schedule (one day prior to cell inoculation).
Where [7] appears, read: real-time RT-PCR, female mice, size-matched tumors.

Take `C[C@H]1c2cccc(O)c2C(=O)C2=C(O)[C@]3(O)C(=O)C(C(N)=O)=C(O)[C@@H](N(C)C)[C@@H]3[C@@H](O)[C@@H]21` [Doxycycline]: in experiment [1] (drug plus estradiol), the “average number of lung metastases” value stood at 9 metastases/mouse, the “range of number of lung metastases” value is 6-18 metastases/mouse, the “effect on estradiol-promoted lung metastases” value is “does not inhibit” and the mean tumor area is 333±142 mm^2. Besides, in experiment [1] (drug plus estradiol, four of five mice), the “mice with lung metastases” value stood at 80%. In addition, the mean tumor area in experiment [1] (drug plus placebo) is 193±80 mm^2.
Consider `C[C@]12CC[C@@H]3c4ccc(O)cc4C[C@@H](CCCCCCCCC[S+]([O-])CCCC(F)(F)C(F)(F)F)[C@H]3[C@@H]1CC[C@@H]2O` (stereo partly drawn) [Fulvestrant], for which the “effect on estradiol-stimulated MMP2 activity” value in experiment [2] (4 hours pretreatment, then estradiol stimulation) is recorded as “almost completely blocked”. Moreover, in experiment [3] (drug in estradiol-treated mice), the “cell death (TUNEL staining) in xenograft tumors” value is “did not affect” and the “cell proliferation (Ki-67 immunoreactivity) in xenograft tumors” value is listed as “did not affect”. Also, in experiment [3] (drug plus estradiol-treated animals), the “ECM organization in xenograft tumors” value was “well-maintained ECM network”. In addition, the “ECM organization in xenograft tumors” value in experiment [3] (drug plus placebo-treated animals) is “dense bundles of collagen fibers”. Also, in experiment [3] (setting [5]), the ERα in tumors result is “lower levels” and the “phospho-p42/44 MAPK in tumors” value is given as “lower levels”. Further, in experiment [1] (drug plus estradiol), the “effect on estradiol-promoted lung metastases” value was “completely blocked” and the mean tumor area was 259±83 mm^2. Moreover, the “effect on survival of estradiol-treated mice bearing xenograft tumors” value in experiment [1] (drug plus estradiol, Kaplan-Meier) is “significantly increased”.
Turning to `COc1cccc(-c2cc(=O)c3ccccc3o2)c1N` [PD98059], the “effect on estradiol's enhancement of MMP2 accumulation” value in experiment [4] (30 minutes preincubation, after two hours of estradiol treatment) was “strongly blocked”.
For `CO[C@H]1C[C@@H]2CC[C@@H](C)[C@@](O)(O2)C(=O)C(=O)N2CCCC[C@H]2C(=O)O[C@H]([C@H](C)C[C@@H]2CC[C@@H](OCCO)[C@H](OC)C2)CC(=O)[C@H](C)/C=C(\C)[C@@H](O)[C@@H](OC)C(=O)[C@H](C)C[C@H](C)/C=C/C=C/C=C/1C` [RAD001], in experiment [1] (setting [6]), the lung metastasis result is listed as “completely blocked” and the subcutaneous tumor development result was “completely blocked”.
As to `C[C@]12CC[C@@H]3c4ccc(O)cc4CC[C@H]3[C@@H]1CC[C@@H]2O` [estradiol, 17 beta-estradiol], in experiment [2] (estradiol stimulation for 24 hours), the “increase of MMP2 activity” value is on record as “eight-fold”. Also, in experiment [2] (up to 120 minutes stimulation), the “duration of estradiol-stimulated MMP2 activity” value is reported as “sustained throughout the 120 minutes stimulation”. Also, the “increase of active MMP2 level” value in experiment [2] (within five minutes of estradiol stimulation) was “three-fold”. Moreover, the “type IV collagen in xenograft tumors” value in experiment [3] (estradiol alone vs placebo, female and male mice) is reported as “marked reduction”. The “ECM organization in xenograft tumors” value in experiment [3] (estradiol alone vs placebo, female and male mice, H&E) was “disrupted ECM network”. Also, the “MMP2 protein level vs placebo-treated” value in experiment [3] (female mice) is 1.8 fold. Also, the “MMP2 protein level vs placebo-treated” value in experiment [3] (male mice) is 2.5 fold. Also, in experiment [3] (setting [7]), the “MMP2 transcript level vs placebo-treated” value is listed as 5 fold and the “MMP9 transcript level vs placebo-treated” value stood at 28 fold. Also, the “progesterone receptor (PgR) level vs placebo-treated” value in experiment [3] (real-time RT-PCR, xenograft tumors) is reported as 4 fold. For the same compound, the “increase of MMP2 accumulation” value in experiment [4] (within two to four hours of estradiol treatment) is “five to seven-fold”. In experiment [1] (E2 alone), the “average number of lung metastases” value is listed as 10 metastases/mouse and the “range of number of lung metastases” value is 4-37 metastases/mouse. For the same compound, the “mice with pulmonary metastases” value in experiment [1] (E2 alone, five of nine mice) was 56%. Moreover, the “increase in pulmonary metastasis of ELT3 cells” value in experiment [1] (E2 alone, mice bearing xenograft tumors) was “three- to five-fold”. The “overall survival vs placebo-treated mice” value in experiment [1] (estradiol alone, mice bearing xenograft tumors) was “reduced overall survival”. This compound also showed a mean tumor area in experiment [1] (estrogen alone) of 251±65 mm^2.
